The values that follow are results of earlier work, collected in publication PMC9635817, “In vitro inhibition of acetylcholinesterase activity by yellow field pea (Pisum sativum) protein-derived peptides as revealed by kinetics and molecular docking” (Frontiers in Nutrition, 2022).

The subject of the series is AChE.

As for `COc1cc2c(cc1OC)[C@@H]1[C@H](O)[C@@H](OC)C=C3CCN(C2)[C@H]31` [galanthine], the “AChE-inhibitory IC50” value is 1.96 µg/mL.
